# Assays:
# LXRβ = target: T1, LXRβ (Homo sapiens, UniProt P55055); experiment: LXRβ reporter gene assay in HEK293; type: cell-based; conditions: read-out: LXRβ antagonistic activity (IC50)
# T1 construct: CMX-GAL4N-hLXRβ-LBD; expressed in transfected cells; host or cells: HEK293
# T1 sequence (P55055 222-460 limits assumed): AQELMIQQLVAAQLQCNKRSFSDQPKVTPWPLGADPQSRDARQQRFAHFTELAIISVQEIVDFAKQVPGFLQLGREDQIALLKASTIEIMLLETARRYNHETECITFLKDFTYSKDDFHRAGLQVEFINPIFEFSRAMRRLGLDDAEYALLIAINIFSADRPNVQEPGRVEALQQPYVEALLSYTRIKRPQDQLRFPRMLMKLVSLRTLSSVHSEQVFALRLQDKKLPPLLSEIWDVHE
# RORα = target: T2, RORα (Homo sapiens, UniProt P35398); conditions: reporter gene assay, HEK293; read-out: RORα inverse agonistic activity (IC50); cited from earlier work
# T2 construct: expressed in transfected cells; host or cells: HEK293
# T2 sequence (P35398 1-523): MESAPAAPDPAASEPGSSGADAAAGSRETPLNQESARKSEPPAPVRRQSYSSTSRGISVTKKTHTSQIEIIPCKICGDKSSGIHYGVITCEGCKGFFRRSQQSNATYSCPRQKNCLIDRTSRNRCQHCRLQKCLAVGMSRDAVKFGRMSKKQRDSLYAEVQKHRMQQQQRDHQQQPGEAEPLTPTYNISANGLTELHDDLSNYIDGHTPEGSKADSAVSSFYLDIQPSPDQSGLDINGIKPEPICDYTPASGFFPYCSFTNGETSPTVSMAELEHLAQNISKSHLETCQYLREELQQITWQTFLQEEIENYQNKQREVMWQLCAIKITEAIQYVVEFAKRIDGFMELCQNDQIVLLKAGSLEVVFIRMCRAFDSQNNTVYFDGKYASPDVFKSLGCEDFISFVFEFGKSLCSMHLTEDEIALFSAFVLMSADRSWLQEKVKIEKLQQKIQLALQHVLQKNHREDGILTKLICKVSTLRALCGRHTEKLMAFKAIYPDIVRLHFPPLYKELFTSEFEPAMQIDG
# RORγ = target: T3, RORγ (Homo sapiens, UniProt P51449); conditions: reporter gene assay, HEK293; read-out: RORγ inverse agonistic activity (IC50); cited from earlier work
# T3 construct: expressed in transfected cells; host or cells: HEK293
# T3 sequence (P51449 1-518): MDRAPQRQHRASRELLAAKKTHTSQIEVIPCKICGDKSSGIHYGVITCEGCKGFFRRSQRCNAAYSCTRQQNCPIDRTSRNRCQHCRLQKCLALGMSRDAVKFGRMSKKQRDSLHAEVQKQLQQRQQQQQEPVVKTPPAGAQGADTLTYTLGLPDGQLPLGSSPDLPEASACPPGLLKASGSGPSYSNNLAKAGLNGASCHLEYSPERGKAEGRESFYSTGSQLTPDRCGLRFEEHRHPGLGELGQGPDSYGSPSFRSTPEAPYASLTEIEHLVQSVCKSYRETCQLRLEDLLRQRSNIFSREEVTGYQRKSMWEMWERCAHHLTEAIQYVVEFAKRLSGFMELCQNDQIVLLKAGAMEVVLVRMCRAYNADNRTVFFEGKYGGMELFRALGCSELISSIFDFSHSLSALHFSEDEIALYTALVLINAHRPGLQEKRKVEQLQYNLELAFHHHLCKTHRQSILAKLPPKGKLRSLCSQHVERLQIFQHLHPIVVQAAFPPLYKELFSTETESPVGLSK
# PR = target: T4, PR (Homo sapiens, UniProt P06401); conditions: cited from earlier work; for IC50: alkaline phosphatase, T47D cells, progesterone 1 nM, read-out: PR antagonistic activity (IC50)
# T4 sequence (P06401 1-933): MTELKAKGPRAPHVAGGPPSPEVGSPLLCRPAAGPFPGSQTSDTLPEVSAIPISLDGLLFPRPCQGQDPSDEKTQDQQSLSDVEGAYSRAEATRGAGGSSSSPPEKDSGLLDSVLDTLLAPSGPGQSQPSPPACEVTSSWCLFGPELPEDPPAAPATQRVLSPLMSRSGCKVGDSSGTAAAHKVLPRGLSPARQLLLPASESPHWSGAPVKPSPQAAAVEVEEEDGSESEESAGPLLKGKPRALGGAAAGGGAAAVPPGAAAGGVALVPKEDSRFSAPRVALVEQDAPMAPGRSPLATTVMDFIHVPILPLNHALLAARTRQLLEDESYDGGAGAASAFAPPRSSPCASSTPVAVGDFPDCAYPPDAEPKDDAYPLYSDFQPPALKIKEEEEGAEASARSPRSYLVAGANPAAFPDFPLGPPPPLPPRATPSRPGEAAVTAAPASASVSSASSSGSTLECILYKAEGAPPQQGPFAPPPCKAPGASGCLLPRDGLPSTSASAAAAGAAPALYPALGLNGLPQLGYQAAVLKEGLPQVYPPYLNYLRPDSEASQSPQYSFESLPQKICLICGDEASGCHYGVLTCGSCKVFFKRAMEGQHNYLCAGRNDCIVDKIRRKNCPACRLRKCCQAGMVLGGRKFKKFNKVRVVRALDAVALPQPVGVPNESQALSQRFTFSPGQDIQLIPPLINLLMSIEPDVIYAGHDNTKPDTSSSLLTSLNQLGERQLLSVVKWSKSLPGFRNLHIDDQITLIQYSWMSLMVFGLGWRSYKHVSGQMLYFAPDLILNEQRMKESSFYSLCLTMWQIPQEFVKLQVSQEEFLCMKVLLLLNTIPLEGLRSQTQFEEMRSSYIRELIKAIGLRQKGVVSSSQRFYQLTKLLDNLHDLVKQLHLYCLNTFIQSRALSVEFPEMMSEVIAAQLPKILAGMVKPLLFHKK
SMILES,IC50 (LXRβ),IC50 (RORα),IC50 (RORγ),IC50 (PR),enhanced PR activity compared with unsubstituted analog 12 (PR)
CCCCn1c(=O)c2ccccc2c2cc(C(O)(C(F)(F)F)C(F)(F)F)c3c(c21)OCO3 [Compound 26],> 20 µM,> 20 µM,> 20 µM,230 nM,–
"O=c1[nH]c2c(Cl)cc(C(O)(C(F)(F)F)C(F)(F)F)cc2c2ccccc12 [Compound 43, 4-Chloro-2-(1,1,1,3,3,3-hexafluoro-2-hydroxypropan-2-yl)phenanthridin-6(5H)-one]",> 20 µM,–,–,–,–
CCCCn1c(=O)c2ccccc2c2cc(CO)ccc21 [Compound 11],> 20 µM,> 20 µM,> 20 µM,–,–
CCc1cc(C(O)(C(F)(F)F)C(F)(F)F)cc2c1[nH]c(=O)c1ccccc12 [Compound 41],> 20 µM,> 20 µM,> 20 µM,–,–
COc1cc(C(O)(C(F)(F)F)C(F)(F)F)cc2c1[nH]c(=O)c1ccccc12 [Compound 39],> 20 µM,> 20 µM,9.6 µM,–,–
CCCCCCCCCn1c(=O)c2ccccc2c2cc(C(O)(C(F)(F)F)C(F)(F)F)ccc21 [Compound 17],> 20 µM,> 20 µM,> 20 µM,–,–
Cn1c(=O)c2ccccc2c2cc(C(O)(C(F)(F)F)C(F)(F)F)ccc21 [Compound 13],–,> 20 µM,> 20 µM,–,–
CCCCn1c(=O)c2ccccc2c2c(OC)c(C(O)(C(F)(F)F)C(F)(F)F)ccc21 [Compound 18],> 20 µM,> 20 µM,> 20 µM,–,–
CCCCn1c(=O)c2ccccc2c2cc(C(C)(C)C)ccc21 [Compound 10],> 20 µM,12 µM,10 µM,–,–
O=c1[nH]c2ccc(C(O)(C(F)(F)F)C(F)(F)F)cc2c2ccccc12 [Compound 1],–,> 20 µM,> 20 µM,–,–
CCCCn1c(=O)c2c(OC)cc(OC)cc2c2cc(C(O)(C(F)(F)F)C(F)(F)F)ccc21 [Compound 30],> 20 µM,> 20 µM,> 20 µM,> 20000 nM,–
CCCCn1c(=O)c2cc(OC)ccc2c2cc(C(O)(C(F)(F)F)C(F)(F)F)cc(OC)c21 [Compound 28],> 10 µM,11 µM,9.7 µM,340 nM,–

# Further compounds by falling IC50 (LXRβ), results first:
IC50 (LXRβ),SMILES,IC50 (RORα),IC50 (RORγ),IC50 (PR),enhanced PR activity compared with unsubstituted analog 12 (PR)
20 µM,CCCc1cc(C(O)(C(F)(F)F)C(F)(F)F)cc2c1[nH]c(=O)c1ccccc12 [Compound 42],> 20 µM,9.9 µM,–,–
18 µM,CCCCn1c(=O)c2cc(OC)ccc2c2cc(C(O)(C(F)(F)F)C(F)(F)F)c(OC)cc21 [Compound 27],9.5 µM,12 µM,300 nM,–
15 µM,CCCCn1c(=O)c2ccccc2c2ccccc21 [Compound 7],10 µM,15 µM,–,–
12 µM,CCCCn1c(=O)c2c(OC)cccc2c2cc(C(O)(C(F)(F)F)C(F)(F)F)ccc21 [Compound 21],12 µM,13 µM,–,–
11 µM,CCCCn1c(=O)c2cc(OC)ccc2c2cc(C(O)(C(F)(F)F)C(F)(F)F)ccc21 [Compound 22],12 µM,13 µM,–,–
9.6 µM,CCCCn1c(=O)c2ccccc2c2cc(C(O)(C(F)(F)F)C(F)(F)F)c(OC)c(OC)c21 [Compound 25],> 10 µM,8.5 µM,510 nM,–
9.2 µM,CCCCn1c(=O)c2ccccc2c2cc(C(O)(C(F)(F)F)C(F)(F)F)c(OC)cc21 [Compound 19],8.2 µM,7.5 µM,–,more than 3 fold
8.9 µM,CCCCn1c(=O)c2cc(OC)c(OC)cc2c2cc(C(O)(C(F)(F)F)C(F)(F)F)ccc21 [Compound 31],18 µM,19 µM,9600 nM,–
6.6 µM,CCn1c(=O)c2ccccc2c2cc(C(O)(C(F)(F)F)C(F)(F)F)ccc21 [Compound 14],> 20 µM,> 20 µM,–,–
6 µM,O=c1[nH]c2ccc(C(O)(C(F)(F)F)C(F)(F)F)cc2c2ccc(F)cc12 [Compound 34],17 µM,> 20 µM,–,–
5.5 µM,CCCCn1c(=O)c2ccccc2c2cc(C(O)(C(F)(F)F)C(F)(F)F)cc(OC)c21 [Compound 20],7.5 µM,5.4 µM,–,> 2 fold
5.4 µM,O=c1[nH]c2ccc(C(O)(C(F)(F)F)C(F)(F)F)cc2c2cc(F)ccc12 [Compound 35],9.8 µM,5 µM,–,–
4.6 µM,O=c1[nH]c2c(F)cc(C(O)(C(F)(F)F)C(F)(F)F)cc2c2ccccc12 [Compound 32],15 µM,18 µM,–,–
4.3 µM,CCCCn1c(=O)c2cccc(OC)c2c2cc(C(O)(C(F)(F)F)C(F)(F)F)ccc21 [Compound 24],7.7 µM,8.5 µM,–,–
3.2 µM,CCCCn1c(=O)c2c(OC)c(OC)ccc2c2cc(C(O)(C(F)(F)F)C(F)(F)F)ccc21 [Compound 29],7.3 µM,8 µM,4200 nM,–
3.1 µM,O=c1[nH]c2ccc(C(O)(C(F)(F)F)C(F)(F)F)cc2c2cccc(F)c12 [Compound 33],7.9 µM,13 µM,–,–
2.4 µM,CCCCn1c(=O)c2ccc(OC)cc2c2cc(C(O)(C(F)(F)F)C(F)(F)F)ccc21 [Compound 23],6.6 µM,2.7 µM,–,–

# Reference: PMC6073568, “Efficient Lead Finding, Activity Enhancement and Preliminary Selectivity Control of Nuclear Receptor Ligands Bearing a Phenanthridinone Skeleton” (International Journal of Molecular Sciences, 2018)
